{
  "source": "paper PMC11731258",
  "about": "“The structural basis for high-affinity c-di-GMP binding to the GSPII-B domain of the traffic ATPase PilF from Thermus thermophilus” (The Journal of Biological Chemistry, 2024)",
  "key": {"[1]": {"target": "T1, PilF159-482 (Thermus thermophilus, UniProt Q5SLC9)", "T1 sequence (Q5SLC9 159-482)": "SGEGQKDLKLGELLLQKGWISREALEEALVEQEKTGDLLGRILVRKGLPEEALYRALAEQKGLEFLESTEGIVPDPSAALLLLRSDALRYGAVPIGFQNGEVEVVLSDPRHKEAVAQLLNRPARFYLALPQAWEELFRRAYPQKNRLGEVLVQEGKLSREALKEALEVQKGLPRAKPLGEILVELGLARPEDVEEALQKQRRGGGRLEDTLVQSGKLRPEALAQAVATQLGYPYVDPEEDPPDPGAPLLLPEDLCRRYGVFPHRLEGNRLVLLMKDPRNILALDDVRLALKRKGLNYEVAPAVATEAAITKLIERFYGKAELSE", "assay": "ITC binding to PilF159-482", "conditions": "20 °C; for Kd: pH 7.5, two-site model", "procedure": "(§1) To assess the ligand-binding capabilities of the various PilF constructs, triplicates of ITC measurements were recorded for each construct. The measurements were carried out using a MicroCal ITC200 (Malvern Panalytical). All ITC experiments were conducted at 20 °C with 50 mM Tris-HCl pH 7.5, 200 mM sodium chloride, 1 mM β-mercaptoethanol as the sample buffer. All protein samples were extensively dialyzed against the sample buffer and the buffer used for dialysis was used to dilute protein and c-di-GMP samples in preparation for the ITC measurements. Each measurement was conducted using the following protocol. In total, 39.8 μl c-di-GMP were titrated to 270 μl protein in 20 separate injections in 180 s intervals with a stirring speed of 750 rpm. After an initial delay of 120 s, the first injection of 0.2 μl c-di-GMP with a duration of 0.4 s was followed by 19 injections of 2 μl with a duration of 4 s. During the measurement, the feedback mode was set to high and the reference power to 11 μcal s^−1. To optimize precision of the measurements, protein and c-di-GMP concentrations were adjusted to the binding capabilities of the respective constructs and ranged from 5 to 200 μM for protein and 50 to 2000 μM for c-di-GMP. All thermograms were processed using Origin 7.0 (OriginLab) using a one-site– or two-site–binding model dependent on the number of expected binding events."}, "[2]": {"target": "T2, PilF1-302 (GSPII-A and GSPII-B) (Thermus thermophilus, UniProt Q5SLC9)", "T2 sequence (Q5SLC9 1-302)": "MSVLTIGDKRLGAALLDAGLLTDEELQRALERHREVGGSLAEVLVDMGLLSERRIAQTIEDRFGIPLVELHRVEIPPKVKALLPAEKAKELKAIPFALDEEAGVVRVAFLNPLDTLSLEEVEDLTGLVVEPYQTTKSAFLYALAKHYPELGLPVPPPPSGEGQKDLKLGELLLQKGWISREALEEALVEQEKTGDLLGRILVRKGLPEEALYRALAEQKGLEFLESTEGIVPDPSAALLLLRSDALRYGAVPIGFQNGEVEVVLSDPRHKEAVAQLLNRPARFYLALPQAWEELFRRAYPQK", "assay": "ITC binding to PilF1-302", "conditions": "20 °C", "procedure": "as §1"}, "[3]": {"target": "T3, PilF159-302 L196R (Thermus thermophilus, UniProt Q5SLC9, L196R)", "T3 sequence (Q5SLC9 159-302 L196R)": "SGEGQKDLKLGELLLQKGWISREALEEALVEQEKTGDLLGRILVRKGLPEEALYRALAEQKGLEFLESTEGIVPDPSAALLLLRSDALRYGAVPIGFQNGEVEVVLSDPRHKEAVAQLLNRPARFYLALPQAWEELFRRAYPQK", "assay": "ITC binding to PilF159-302 L196R", "conditions": "20 °C", "procedure": "as §1"}, "[4]": {"system": "PilF159-302 Q190E+Q218E", "assay": "ITC binding to PilF159-302 Q190E+Q218E", "set-up": "species or system Thermus thermophilus", "conditions": "20 °C, double mutant", "procedure": "as §1"}, "[5]": {"system": "PilF GSPII-A domain", "assay": "ITC comparison of domain truncation constructs", "assay_type": "binding, Thermus thermophilus", "conditions": "inferred from ITC of PilF1-302 vs PilF159-302 and PilF1-482", "procedure": "as §1"}, "[6]": {"target": "MshEN lacking the entire C-terminal subdomain", "set-up": "method as in PMID 27578558", "conditions": "entire C-terminal subdomain deleted; read-out: KD (ligand affinity); cited from earlier work"}, "[7]": {"target": "degenerate EAL-domain of FimX", "set-up": "method as in PMID 19679088", "conditions": "cited from earlier work"}},
  "note": "Where two headings read alike, the source gives them in different places.",
  "data": [
    {"smiles": "Nc1nc2c(ncn2[C@@H]2O[C@@H]3COP(=O)(O)O[C@H]4[C@@H](O)[C@H](n5cnc6c(=O)[nH]c(N)nc65)O[C@@H]4COP(=O)(O)O[C@H]3[C@H]2O)c(=O)[nH]1", "note": "[c-di-GMP, cyclic dimeric guanosine monophosphate]", "values": [
      {"measurement": "N, site 1", "setting": "[1]; Table S1 site 1", "value": "1 ± 0.1"},
      {"measurement": "ΔH, site 1", "setting": "[1]; Table S1 site 1", "value": "-8689 ± 959", "unit": "cal/mol"},
      {"measurement": "ΔS, site 1", "setting": "[1]; Table S1 site 1", "value": "0.95 ± 3.5", "unit": "cal/mol/deg"},
      {"measurement": "N, site 2", "setting": "[1]; Table S1 site 2", "value": "0.7 ± 0.1"},
      {"measurement": "ΔH, site 2", "setting": "[1]; Table S1 site 2", "value": "-11766 ± 1182", "unit": "cal/mol"},
      {"measurement": "ΔS, site 2", "setting": "[1]; Table S1 site 2", "value": "2.1 ± 4.7", "unit": "cal/mol/deg"},
      {"measurement": "Kd", "setting": "[1]; read-out: KD, site 1 (low affinity)", "value": "208 ± 27", "unit": "nM"},
      {"measurement": "Kd", "setting": "[1]; read-out: KD, site 2 (high affinity)", "value": "1 ± 0.3", "unit": "nM"},
      {"measurement": "N", "setting": "[2]", "value": "0.94 ± 0.13"},
      {"measurement": "ΔH", "setting": "[2]", "value": "-14263 ± 2001", "unit": "cal/mol"},
      {"measurement": "ΔS", "setting": "[2]", "value": "-11.4 ± 6.4", "unit": "cal/mol/deg"},
      {"measurement": "Kd", "setting": "[2]; pH 7.5", "value": "7 ± 2", "unit": "nM"},
      {"measurement": "N", "setting": "[3]", "value": "1.23 ± 0.03"},
      {"measurement": "ΔH", "setting": "[3]", "value": "-8148 ± 209", "unit": "cal/mol"},
      {"measurement": "ΔS", "setting": "[3]", "value": "7.1 ± 0.8", "unit": "cal/mol/deg"},
      {"measurement": "Kd", "setting": "[3]; pH 7.5", "value": "23 ± 2", "unit": "nM"},
      {"measurement": "c-di-GMP binding", "setting": "[4]", "value": "abrogated c-di-GMP binding"},
      {"measurement": "ability to bind c-di-GMP", "setting": "[5]", "value": "lacking the ability to bind c-di-GMP"},
      {"measurement": "Kd", "setting": "[6]", "value": 350, "unit": "nM"},
      {"measurement": "Kd", "setting": "[7]", "value": "100 to 200", "unit": "nM"}
    ]}
  ]
}
